From PubChem BioAssay AID1963854 (Molecular Pharmacology Branch, DTP, NCI, 2024)
pIC50: −log10 of the molar value.

System: 186277-243-T-J2-PDC complex spheroid viability
Experiment: Anticancer human tumor 186277-243-T-J2-PDC patient-derived colon adenocarcinoma cell line growth inhibition [POLQ]
Conditions: for pIC50: curve of first compound; for viability, T/C: stronger effect = lower value; active = viability on the fitted dose curve at most 10% of control; inactive = the rest
Description: Multicellular complex tumor spheroid response to Polymerase (POL) inhibitors (novobiocin, ART-558, RP6685) in combination with a variety of drugs and investigational agents in selected tumor cell lines
The POL inhibitors (novobiocin, ART-558, and RP6685) were evaluated both individually and in combination with standard of care and investigational anticancer small molecules within a complex spheroid model of solid tumors. . Complex spheroids include a stromal component modeled by human endothelial cells (HUVEC) and fibroblasts modeled by human mesenchymal stem cells (MSCs). The concentration ranges selected for each drug and investigational agent were based upon clinically achievable concentrations if the clinical Cmax of the agent was known.
Compounds. The drugs and investigational agents: novobiocin (NSC847541), ART-558 (NSC835418), RP-6685 (NSC848927), peposertib (NSC802822), ceralasertib (NSC780249), elimusertib (NSC800525), camonsertib (NSC841442), AZD-1390 (NSC803789), olaparib (NSC753686), talazoparib (NSC767125), rucaparib (NSC756644), sotorasib (NSC818433), MRTX-1133 (NSC836407), SN-38 (NSC673596), topotecan (NSC609699), epotoside (NSC141540), doxorubicin (NSC123127), gemcitabine (NSC613327), 5-fluorouracil (NSC19893), paclitaxel (NSC125973), vemurafenib (NSC761431), MSA-2 (NSC828583), SN-011 (NSC837082), adavosertib (NSC754352), prexasertib (NSC758257), carboplatin (NSC241240) and oxaliplatin (NSC266046), were obtained from the National Cancer Institute (NCI) Developmental Therapeutics Program Chemical Repository (21). The FDA-approved anticancer drug set is available from the Developmental Therapeutics Program at https://dtp.cancer.gov/organization/dscb/obtaining/. […] The stock solutions were prepared in dimethyl sulfoxide (DMSO, Sigma-Aldrich, St. Louis, MO, cat. D2650), except for the platinum compounds which were prepared in saline (Quality Biological, Gaithersburg, MD, cat. 114-055-101), at 800-fold the tested concentration and stored at -70 degrees C prior to their use. All drugs and investigational agents were tested over a range starting from a high concentration at or near the clinical Cmax and decreasing in half-log increments. If the clinical Cmax for an agent had not been determined, the highest concentration tested was 10 microM, except for SN-38, which was tested at a high concentration of 1 microM.
Cell Culture. All cells were maintained in an incubator at 37 degrees C and 5% CO2 with 95% humidity. The PDC lines were cultured according to standard operating procedures established by the NCI PDMR (https://pdmr.cancer.gov). Table 3 of the manuscript, lists the cell lines along with the number of the three cell types plated to form the mct-spheroids and media for tumor cell growth. After thawing, all PDC lines, except 997537-175-T-J1-PDC and 415267-285-R-J2-PDC, were cultured in Matrigel-coated flasks prepared with a working solution of 1X Ham's F-12 nutrient mix, without supplementation (Thermo Fisher Scientific, cat. 11765054), 100 U/mL penicillin-streptomycin (Thermo Fisher Scientific, cat. 15140122), and 2.5% Matrigel (Corning Inc., Corning, NY, cat. 354248) for the first three passages. The two PDC lines 997537-175-T-J1-PDC and 415267-285-R-J2-PDC were cultured on uncoated flasks. The 857933-349-R-J2-PDC line was cultured in 6C/Colon 1B media containing advanced DMEM/F-12 (Thermo Fisher Scientific, cat. 12634028), 10 mM HEPES (Thermo Fisher Scientific, cat. 15630080), 1X GlutaMAX supplement (Thermo Fisher Scientific, cat. 35050061), 0.1 mg/mL primocin (InvivoGen, San Diego, CA, cat. ant-pm-2), 10% defined fetal bovine serum, heat inactivated (HyClone Laboratories Inc., Logan, UT, cat. SH30070.03HI), 50% L-WRN conditioned media (ATCC, cat. CRL-3276), 1.25 mM N-Acetyl-L-cysteine (Sigma-Aldrich, cat. A9165), 10 mM nicotinamide (Sigma-Aldrich, cat. N0636), 1X B-27 supplement (Thermo Fisher Scientific, cat. 17504044), 1X N-2 supplement (Thermo Fisher Scientific, cat. […]
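Note: spheroids exposed to compounds for seven days.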

Cn1ncnc1[C@H]1c2n[nH]c(=O)c3cc(F)cc(c23)N[C@@H]1c1ccc(F)cc1 + COC1C(OC(N)=O)C(O)C(Oc2ccc3c(O)c(NC(=O)c4ccc(O)c(CC=C(C)C)c4)c(=O)oc3c2C)OC1(C)C
inactive: viability, T/C (second compound 0.0316 µM, first compound 0.000316 µM) 96.7% | viability, T/C (second compound 0.0316 µM, first compound 0.001 µM) 93% | viability, T/C (second compound 0.0316 µM, first compound 0.00316 µM) 114% | viability, T/C (second compound 0.0316 µM, first compound 0.01 µM) 112% | viability, T/C (second compound 0.0316 µM, first compound 0.0316 µM) 119% | viability, T/C (second compound 0.0316 µM, first compound 0.1 µM) 105% | viability, T/C (second compound 0.1 µM, first compound 0.000316 µM) 103% | viability, T/C (second compound 0.1 µM, first compound 0.001 µM) 110% | viability, T/C (second compound 0.1 µM, first compound 0.00316 µM) 103% | viability, T/C (second compound 0.1 µM, first compound 0.01 µM) 106% | viability, T/C (second compound 0.1 µM, first compound 0.0316 µM) 116% | viability, T/C (second compound 0.1 µM, first compound 0.1 µM) 108% | viability, T/C (second compound 0.316 µM, first compound 0.000316 µM) 101% | viability, T/C (second compound 0.316 µM, first compound 0.001 µM) 111% | viability, T/C (second compound 0.316 µM, first compound 0.00316 µM) 111% | viability, T/C (second compound 0.316 µM, first compound 0.01 µM) 105% | viability, T/C (second compound 0.316 µM, first compound 0.0316 µM) 114% | viability, T/C (second compound 0.316 µM, first compound 0.1 µM) 108% | viability, T/C (second compound 1 µM, first compound 0.000316 µM) 84.4% | viability, T/C (second compound 1 µM, first compound 0.001 µM) 110% | viability, T/C (second compound 1 µM, first compound 0.00316 µM) 108% | viability, T/C (second compound 1 µM, first compound 0.01 µM) 98.3% | viability, T/C (second compound 1 µM, first compound 0.0316 µM) 118% | viability, T/C (second compound 1 µM, first compound 0.1 µM) 102% | viability, T/C (second compound 3.16 µM, first compound 0.000316 µM) 92.4% | viability, T/C (second compound 3.16 µM, first compound 0.001 µM) 106% | viability, T/C (second compound 3.16 µM, first compound 0.00316 µM) 107% | viability, T/C (second compound 3.16 µM, first compound 0.01 µM) 117% | viability, T/C (second compound 3.16 µM, first compound 0.0316 µM) 128% | viability, T/C (second compound 3.16 µM, first compound 0.1 µM) 100% | viability, T/C (second compound 10 µM, first compound 0.000316 µM) 96.2% | viability, T/C (second compound 10 µM, first compound 0.001 µM) 106% | viability, T/C (second compound 10 µM, first compound 0.00316 µM) 110% | viability, T/C (second compound 10 µM, first compound 0.01 µM) 101% | viability, T/C (second compound 10 µM, first compound 0.0316 µM) 109% | viability, T/C (second compound 10 µM, first compound 0.1 µM) 104%
< 7.00: pIC50 (second compound 0.0316 µM) | pIC50 (second compound 0.1 µM) | pIC50 (second compound 0.316 µM) | pIC50 (second compound 1 µM) | pIC50 (second compound 3.16 µM) | pIC50 (second compound 10 µM)
